Data taken from patent publication US6784201B2, “Benzothiepines having activity as inhibitors of ileal bile acid transport and taurocholate uptake” (G.D. Searle & Company, priority 1994, dated 2004).
Structures can show the parent of a compound that is named as a salt. Where two headings read alike, the source gives them in different places.

Columns and labels:
fecal bile acid (FBA) = experiment: Rat gavage assay (fecal bile acid increase); format: in vivo
Description: Male Wister rats (275-300 g) are administered IBAT inhibitors using an oral gavage procedure. Drug or vehicle (0.2% Tween 80 in water) is administered once a day (9:00-10:0 a.m.) for 4 days at varying dosages in a final volume of 2 mL per kilogram of body weight. Total fecal samples are collected during the final 48 hours of the treatment period and analyzed for bile acid content using an enzymatic assay as described below. Compound efficacy is determined by comparison of the increase in fecal bile acid (FBA) concentration in treated rats to the mean FBA concentration of rats in the vehicle group.
Measurement of Fecal Bile Acid Concentration (FBA)
Total fecal output from individually housed hamsters was collected for 24 or 48 hours, dried under a stream of nitrogen, pulverized and weighed. Approximately 0.1 gram was weighed out and extracted into an organic solvent (butanol/water). Following separation and drying, the residue was dissolved in methanol and the amount of bile acid present was measured enzymatically using the 3α-hydroxysteroid steroid dehydrogenase reaction with bile acids to reduce NAD. (Reference: Mashige, F., et al. (1981) Clin. Chem. 27, 1352).

human IBAT = target: T1, human IBAT (Homo sapiens, UniProt Q12908); experiment: In vitro assay of IBAT-mediated uptake of [14C]-taurocholate (TC) in H14 cells; format: cell-based
T1 construct: expressed in transfected cells; host or cells: Baby hamster kidney (BHK) cells, clone H14
T1 sequence (Q12908 1-348): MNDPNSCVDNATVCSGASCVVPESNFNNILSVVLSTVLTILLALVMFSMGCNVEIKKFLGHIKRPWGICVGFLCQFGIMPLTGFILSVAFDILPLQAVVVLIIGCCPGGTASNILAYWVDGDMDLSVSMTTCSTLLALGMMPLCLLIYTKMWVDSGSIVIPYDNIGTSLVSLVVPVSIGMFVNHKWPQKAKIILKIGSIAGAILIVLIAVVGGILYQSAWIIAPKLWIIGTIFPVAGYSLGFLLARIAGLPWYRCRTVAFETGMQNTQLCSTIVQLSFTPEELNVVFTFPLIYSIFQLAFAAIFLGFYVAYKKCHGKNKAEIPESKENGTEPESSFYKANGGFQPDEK
Summary of the method: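 BHK cells stably expressing human IBAT (H14) were incubated 2 h at 37° C with compound and 3 μM final [14C]-taurocholate in DMEM (4.5 g/L glucose) plus 0.2% fatty acid-free BSA. After cold PBS washes, cell-associated radioactivity was measured by scintillation counting.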

H14 cells = experiment: In vitro assay of uptake of [14C]-alanine; format: cell-based, hamster
Description: Baby hamster kidney cells (BHK) transfected with the cDNA of human IBAT (H14 cells) are seeded at 60,000 cells/well in 96 well Top-Count tissue culture plates for assays run within in 24 hours of seeding, 30,000 cells/well for assays run within 48 hours, and 10,000 cells/well for assays run within 72 hours.
On the day of assay, the cell monolayer is gently washed once with 100 μl assay buffer (Dulbecco's Modified Eagle's medium with 4.5 g/L glucose+0.2% (w/v) fatty acid free bovine serum albumin-(FAF)BSA). To each well 50 μl of a two-fold concentrate of test compound in assay buffer is added along with 50 μl of 6 μM [^14C]-taurocholate in assay buffer (final concentration of 3 μM [^14C]-taurocholate). The cell culture plates are incubated 2 hours at 37° C. prior to gently washing each well twice with 100 μl 4° C. Dulbecco's phosphate-buffered saline (PBS) containing 0.2% (w/v) (FAF)BSA. The wells are then gently washed once with 100 μl 4° C. PBS without (FAF)BSA. To each 200 μl of liquid scintillation counting fluid is added, the plates are heat sealed and shaken for 30 minutes at room temperature prior to measuring the amount of radioactivity in each well on a Packard Top-Count instrument.
In Vitro Assay of Compounds that Inhibit Uptake of [^14C3-Alanine
The alanine uptake assay is performed in an identical fashion to the taurocholate assay, with the exception that labeled alanine is substituted for the labeled taurocholate.

[1] = In Vitro Taurocholate Uptake, Table 10, read-out: Human TC IC50
[2] = H14 cells, Table 5, read-out: IC50 uM (In vitro Taurocholate Cell Uptake)

SMILES	melting point [°C]	IC50 (human IBAT; [1]) [µM]	IC50 (human IBAT; [2]) [µM]	further results
CCCCC1(CCCC)CS(=O)(=O)c2ccc(N(C)C)cc2[C@@H](c2ccc(OCCOCCC(C(=O)O)C(=O)O)cc2)[C@H]1O [Example 1432, (4S-cis)-[2-[2-[4-[3,3-Dibutyl-7-(dimethylamino)-2,3,4,5-tetrahydro-4-hydroxy-1,1-dioxido-1-benzothiepin-5-yl]phenoxy]ethoxy]ethyl]propanedioic acid]	119.5	0.026		Delta (micromoles fecal bile acid per day) (fecal bile acid (FBA); dose 5 mg/kg/day): 36.2 micromoles fecal bile acid per day; Delta (micromoles fecal bile acid per day) (fecal bile acid (FBA); dose .04 mg/kg/day): 2.4 micromoles fecal bile acid per day; Delta (micromoles fecal bile acid per day) (fecal bile acid (FBA); dose .2 mg/kg/day): 9.7 micromoles fecal bile acid per day
CCCCC1(CCCC)CS(=O)(=O)c2ccc(N(C)C)cc2[C@@H](c2cccc(NC(=O)OCCC[N+]34CCN(CC3)CC4)c2)[C@H]1O.[Cl-]	218 to 225			
CCCCC1(CC)CS(=O)(=O)c2ccccc2C(=C2CCCCC2)C1O (stereo not drawn) [Example 10a, 3-Butyl-3-ethyl-4-hydroxy-5-cyclohexylidine--2,3,4,5-tetrahydrobenzothiepine-1,1-dioxide]			7	% Inhibition of Alanine Uptake @ 100 uM (H14 cells; 100 uM): 77.6%
CCCC[C@]1(CC)CS(=O)(=O)c2ccccc2[C@@H](c2ccc(C(=O)OC)cc2)[C@H]1O [Example 43, (3α,4β,5β) 3-Butyl-5-(4-carbomethoxyphenyl)-3-ethyl-4-hydroxy-2,3,4,5-tetrahydrobenzothiepine-1,1-dioxide]			1.5	inhibition at 25 µM (H14 cells; Mesocricetus auratus, 25 μM): 16%
CCCCC1(CCCC)CS(=O)(=O)c2ccc(N(C)C)cc2[C@@H](c2ccc(OCCCCCNC(=N)N)cc2)[C@H]1O [Example 1422, (4R-cis)-[5-[4-[3,3-Dibutyl-7-(dimethylamino)-2,3,4,5-tetrahydro-4-hydroxy-1,1-dioxido-1-benzothiepin-5-yl]phenoxy]pentyl]guanidine]	67 to 72.5	0.003		
CCCCC1(CC)CS(=O)(=O)c2cc(OCC)ccc2C(c2ccccc2)C1O (stereo not drawn) [Example 28]			8	inhibition at 20 µM (H14 cells; Mesocricetus auratus): 31%
CCCCC1(CCCC)CS(=O)(=O)c2ccc(N(C)C)cc2[C@@H](c2ccc(OCCCCC[N+](C)(C)CC[N+](C)(C)CC)cc2)[C@H]1O [Example 1418, (4R-cis)-N-[5-[4-[3,3-Dibutyl-7-(dimethylamino)-2,3,4,5-tetrahydro-4-hydroxy-1,1-dioxido-1-benzothiepin-5-yl]phenoxy]pentyl]-N′-ethyl-N,N,N′,N′-tetramethyl-1,2-ethanediaminium dichloride]	193 to 197	< 0.001		Delta (micromoles fecal bile acid per day) (fecal bile acid (FBA); dose 2 mg/kg/day): 20.3 micromoles fecal bile acid per day; Delta (micromoles fecal bile acid per day) (fecal bile acid (FBA); dose .016 mg/kg/day): −10 micromoles fecal bile acid per day; Delta (micromoles fecal bile acid per day) (fecal bile acid (FBA); dose .08 mg/kg/day): −4.6 micromoles fecal bile acid per day; Delta (micromoles fecal bile acid per day) (fecal bile acid (FBA); dose .4 mg/kg/day): 29.5 micromoles fecal bile acid per day
CCCCC1(CCCC)CS(=O)(=O)c2ccc(N(C)C)cc2[C@@H](c2ccc(OCCCCCc3nn[nH]n3)cc2)[C@H]1O [Example 1420, (4R-cis)-3,3-Dibutyl-7-(dimethylamino)-2,3,4,5-tetrahydro-5-[4-[[5-(1H-tetrazol-5-yl)pentyl]oxy]phenyl]-1-benzothiepin-4-ol 1,1-dioxide]	80 to 85	0.011		Delta (micromoles fecal bile acid per day) (fecal bile acid (FBA); dose 2 mg/kg/day): 53.1 micromoles fecal bile acid per day; Delta (micromoles fecal bile acid per day) (fecal bile acid (FBA); dose .016 mg/kg/day): 29.6 micromoles fecal bile acid per day; Delta (micromoles fecal bile acid per day) (fecal bile acid (FBA); dose .08 mg/kg/day): 38.1 micromoles fecal bile acid per day; Delta (micromoles fecal bile acid per day) (fecal bile acid (FBA); dose .4 mg/kg/day): 45 micromoles fecal bile acid per day
CCC1(CC)CS(=O)(=O)c2ccc(NC(=O)OCc3ccccc3)cc2[C@@H](c2ccccc2)[C@H]1O [Example 286]	180 to 181			IC50 (human IBAT; read-out: Human TC IC50): 19 µM
O=S1(=O)CC2(CCCCC2)[C@@H](O)[C@@H](c2ccccc2)c2ccccc21 (relative stereo) [Example 60, cis-4-Hydroxy-5-phenyl-2,3,4,5-tetrahydro spiro(benzothiepine-3,1′-cyclohexane)-1,1-dioxide]			9	inhibition at 100 µM (H14 cells; Mesocricetus auratus): 59%
CCCCC1(CCCC)CS(=O)(=O)c2ccc(N(C)C)cc2[C@@H](c2ccc(OCCCCS(N)(=O)=O)cc2)[C@H]1O [Example 1405]	108 to 110	0.021		
CCCC[C@]1(CC)CS(=O)(=O)c2ccc(OC)cc2[C@H](c2ccccc2)[C@@H]1O [Example 48, (3α,4α,5α) 3-Butyl-3-ethyl-4-hydroxy-7-methoxy-5-phenyl-2,3,4,5-tetrahydrobenzothiepine-1,1-dioxide]			2	inhibition at 20 µM (H14 cells; Mesocricetus auratus): 22%
CCCCC1(CC)C=C(c2ccccc2)c2ccccc2S(=O)(=O)C1 (stereo not drawn) [Example 7, 3-Butyl-3-ethyl-5-phenyl-2,3-dihydrobenzothiepine-1,1-dioxide]			50	inhibition at 100 µM (H14 cells; Mesocricetus auratus): 49.3%
CCCC[C@]1(CC)CS(=O)(=O)c2cc(O)ccc2[C@H](c2ccccc2)[C@@H]1O [Example 27, (3α,4α,5α) 3-Butyl-3-ethyl-4,8-dihydroxy-5-phenyl-2,3,4,5-tetrahydrobenzothiepine-1,1-dioxide]				inhibition at 20 µM (H14 cells; Mesocricetus auratus): 7%
CCCCCCNc1ccc2c(c1)[C@@H](c1ccccc1)[C@@H](O)[C@](CC)(CCCC)CS2(=O)=O [Example 41, (3α,4β,5β) 3-Butyl-3-ethyl-7-(n-hexylamino)-4-hydroxy-5-phenyl-2,3,4,5-tetrahydrobenzothiepine-1,1-dioxide]			2	inhibition at 20 µM (H14 cells; Mesocricetus auratus): 0%
CCCCC1(CCCC)CS(=O)(=O)c2ccc(N(C)C)cc2[C@@H](c2ccc(OCCCCC[n+]3cccc4ccccc43)cc2)[C@H]1O (as salt: methanesulfonate) [Example 1412, (4R-cis)-1-[5-[4-[3,3-Dibutyl-7-(dimethylamino)-2,3,4,5-tetrahydro-4-hydroxy-1,1-dioxido-1-benzothiepin-5-yl]phenoxy]pentyl]quinolinium, methanesulfonate (Salt)]	136			
CCCC[C@]1(CC)CS(=O)(=O)c2ccc(NO)cc2[C@H](c2ccccc2)[C@@H]1O [Example 37, (3α,4α,5α) 3-Butyl-3-ethyl-4-hydroxy-7-hydroxyamino-5-phenyl-2,3,4,5-tetrahydrobenzothiepine-1,1-dioxide]			3	inhibition at 5 µM (H14 cells; Mesocricetus auratus, 5 μM): 0%
CCCCC1(CCCC)CS(=O)(=O)c2ccc(N(C)C)cc2[C@@H](c2cccc(NC(=O)Nc3cccc(C[N+]45CCN(CC4)CC5)c3)c2)[C@H]1O.[Cl-]	246 to 248			
CCCCC1(CCCC)CS(=O)(=O)c2ccc(N(C)C)cc2[C@@H](c2ccc(OCc3ccc(C(=O)O)cc3)cc2)[C@H]1O [Example 1424, (4R-cis)-4-[[4-[3,3-Dibutyl-7-(dimethylamino)-2,3,4,5-tetrahydro-4-hydroxy-1,1-dioxido-1-benzothiepin-5-yl]phenoxy]methyl]benzoic acid]	156 to 159	0.014		
